Tests used:
Assay in all cases: radiometric filter-binding kinase assay, Kinase HotSpot
Conditions in all cases: compound 0.5 µM; ATP 10 µM
ABL2 (human) = ABL2 (human) (UniProt P42684)
ACVRL1 (human) = ACVRL1 (human) (UniProt P37023)
AKT3 (human) = AKT3 (human) (UniProt Q9Y243)
BLK (human) = BLK (human) (UniProt P51451)
CAMK1G (human) = CAMK1G (human) (UniProt Q96NX5)
CAMK4 (human) = CAMK4 (human) (UniProt Q16566)
CAMKK1 (human) = CAMKK1 (human) (UniProt Q8N5S9)
CDC42BPB (human) = CDC42BPB (human) (UniProt Q9Y5S2)
CDK1 CCNB1 (human) = CDK1 CCNB1 (human) (UniProt P06493+P14635)
CDK6 CCND3 (human) = CDK6 CCND3 (human) (UniProt P30281+Q00534)
CLK2 (human) = CLK2 (human) (UniProt P49760)
FER (human) = FER (human) (UniProt P16591)
FGFR2 (human) = FGFR2 (human) (UniProt P21802)
FRK (human) = FRK (human) (UniProt P42685)
GRK4 (human) = GRK4 (human) (UniProt P32298)
GRK7 (human) = GRK7 (human) (UniProt Q8WTQ7)
HIPK2 (human) = HIPK2 (human) (UniProt Q9H2X6)
HIPK4 (human) = HIPK4 (human) (UniProt Q8NE63)
IKBKB (human) = IKBKB (human) (UniProt O14920)
LCK (human) = LCK (human) (UniProt P06239)
LRRK2 (human) = LRRK2 (human) (UniProt Q5S007)
MAP2K1 (human) = MAP2K1 (human) (UniProt Q02750)
MAP3K14 (human) = MAP3K14 (human) (UniProt Q99558)
MAP3K9 (human) = MAP3K9 (human) (UniProt P80192)
MAPKAPK5 (human) = MAPKAPK5 (human) (UniProt Q8IW41)
MST4 (human) = MST4 (human) (UniProt Q9P289)
NEK2 (human) = NEK2 (human) (UniProt P51955)
NEK2 (human), sequence (P51955 whole entry, looked up): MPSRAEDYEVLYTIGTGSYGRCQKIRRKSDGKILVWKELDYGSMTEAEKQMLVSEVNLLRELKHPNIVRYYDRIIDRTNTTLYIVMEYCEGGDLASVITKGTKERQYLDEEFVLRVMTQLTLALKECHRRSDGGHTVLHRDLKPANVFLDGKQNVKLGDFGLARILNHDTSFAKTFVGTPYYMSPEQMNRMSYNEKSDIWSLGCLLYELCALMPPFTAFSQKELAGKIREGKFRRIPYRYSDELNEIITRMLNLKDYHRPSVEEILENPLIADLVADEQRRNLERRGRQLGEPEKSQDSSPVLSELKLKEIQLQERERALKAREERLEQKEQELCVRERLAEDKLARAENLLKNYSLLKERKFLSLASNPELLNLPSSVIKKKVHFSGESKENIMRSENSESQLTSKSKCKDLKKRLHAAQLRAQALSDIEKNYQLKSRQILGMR

NEK7 (human) = NEK7 (human) (UniProt Q8TDX7)
PAK1 (human) = PAK1 (human) (UniProt Q13153)
PDGFRB (human) = PDGFRB (human) (UniProt P09619)
PRKD1 (human) = PRKD1 (human) (UniProt Q15139)
RPS6KB1 (human) = RPS6KB1 (human) (UniProt P23443)
RPS6KB1 (human), sequence (P23443 whole entry, looked up): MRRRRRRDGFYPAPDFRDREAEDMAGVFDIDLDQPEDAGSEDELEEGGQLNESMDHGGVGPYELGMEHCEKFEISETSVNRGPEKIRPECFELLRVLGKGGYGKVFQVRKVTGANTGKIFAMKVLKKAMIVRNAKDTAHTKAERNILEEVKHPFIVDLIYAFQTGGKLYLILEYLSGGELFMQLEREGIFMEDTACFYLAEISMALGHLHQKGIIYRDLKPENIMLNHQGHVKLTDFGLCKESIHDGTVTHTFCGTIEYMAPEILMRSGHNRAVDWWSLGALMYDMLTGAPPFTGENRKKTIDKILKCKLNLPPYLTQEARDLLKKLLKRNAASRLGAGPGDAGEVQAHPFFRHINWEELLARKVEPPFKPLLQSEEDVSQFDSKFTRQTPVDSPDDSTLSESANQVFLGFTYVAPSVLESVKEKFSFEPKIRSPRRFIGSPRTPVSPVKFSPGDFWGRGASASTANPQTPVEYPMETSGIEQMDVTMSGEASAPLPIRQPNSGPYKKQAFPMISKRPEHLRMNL

RPS6KB2 (human) = RPS6KB2 (human) (UniProt Q9UBS0)
SRPK3 (human) = SRPK3 (human) (UniProt Q9UPE1)
SRPK3 (human), sequence (Q9UPE1 whole entry, looked up): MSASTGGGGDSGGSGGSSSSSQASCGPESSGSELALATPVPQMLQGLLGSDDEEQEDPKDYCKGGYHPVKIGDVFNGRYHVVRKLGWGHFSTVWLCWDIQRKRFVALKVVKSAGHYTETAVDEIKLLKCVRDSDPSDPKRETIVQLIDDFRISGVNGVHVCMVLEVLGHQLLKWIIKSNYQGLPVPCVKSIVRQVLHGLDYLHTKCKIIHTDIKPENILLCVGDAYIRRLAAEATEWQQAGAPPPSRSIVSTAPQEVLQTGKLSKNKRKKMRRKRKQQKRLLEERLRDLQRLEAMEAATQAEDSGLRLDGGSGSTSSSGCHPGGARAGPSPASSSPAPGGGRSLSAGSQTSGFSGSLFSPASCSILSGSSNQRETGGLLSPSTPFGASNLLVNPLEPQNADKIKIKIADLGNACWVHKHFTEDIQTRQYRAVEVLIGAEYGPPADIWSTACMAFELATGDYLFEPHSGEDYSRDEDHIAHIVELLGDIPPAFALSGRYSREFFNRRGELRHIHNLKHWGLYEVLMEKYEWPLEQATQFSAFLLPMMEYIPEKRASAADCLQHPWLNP

STK11 (human) = STK11 (human) (UniProt Q15831)
STK16 (human) = STK16 (human) (UniProt O75716)
STK16 (human), sequence (O75716 whole entry, looked up): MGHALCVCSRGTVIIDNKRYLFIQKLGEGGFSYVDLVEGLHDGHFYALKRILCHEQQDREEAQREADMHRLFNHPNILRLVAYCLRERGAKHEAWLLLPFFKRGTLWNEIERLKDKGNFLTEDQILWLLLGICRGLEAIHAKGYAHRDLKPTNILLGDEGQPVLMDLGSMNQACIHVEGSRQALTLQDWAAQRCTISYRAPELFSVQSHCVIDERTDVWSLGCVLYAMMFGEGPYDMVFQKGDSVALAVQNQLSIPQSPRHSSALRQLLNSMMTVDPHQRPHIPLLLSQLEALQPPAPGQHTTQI

STK3 (human) = STK3 (human) (UniProt Q13188)
TAOK2 (human) = TAOK2 (human) (UniProt Q9UL54)
TAOK3 (human) = TAOK3 (human) (UniProt Q9H2K8)
TEK (human) = TEK (human) (UniProt Q02763)
TYRO3 (human) = TYRO3 (human) (UniProt Q06418)
TYRO3 (human), sequence (Q06418 whole entry, looked up): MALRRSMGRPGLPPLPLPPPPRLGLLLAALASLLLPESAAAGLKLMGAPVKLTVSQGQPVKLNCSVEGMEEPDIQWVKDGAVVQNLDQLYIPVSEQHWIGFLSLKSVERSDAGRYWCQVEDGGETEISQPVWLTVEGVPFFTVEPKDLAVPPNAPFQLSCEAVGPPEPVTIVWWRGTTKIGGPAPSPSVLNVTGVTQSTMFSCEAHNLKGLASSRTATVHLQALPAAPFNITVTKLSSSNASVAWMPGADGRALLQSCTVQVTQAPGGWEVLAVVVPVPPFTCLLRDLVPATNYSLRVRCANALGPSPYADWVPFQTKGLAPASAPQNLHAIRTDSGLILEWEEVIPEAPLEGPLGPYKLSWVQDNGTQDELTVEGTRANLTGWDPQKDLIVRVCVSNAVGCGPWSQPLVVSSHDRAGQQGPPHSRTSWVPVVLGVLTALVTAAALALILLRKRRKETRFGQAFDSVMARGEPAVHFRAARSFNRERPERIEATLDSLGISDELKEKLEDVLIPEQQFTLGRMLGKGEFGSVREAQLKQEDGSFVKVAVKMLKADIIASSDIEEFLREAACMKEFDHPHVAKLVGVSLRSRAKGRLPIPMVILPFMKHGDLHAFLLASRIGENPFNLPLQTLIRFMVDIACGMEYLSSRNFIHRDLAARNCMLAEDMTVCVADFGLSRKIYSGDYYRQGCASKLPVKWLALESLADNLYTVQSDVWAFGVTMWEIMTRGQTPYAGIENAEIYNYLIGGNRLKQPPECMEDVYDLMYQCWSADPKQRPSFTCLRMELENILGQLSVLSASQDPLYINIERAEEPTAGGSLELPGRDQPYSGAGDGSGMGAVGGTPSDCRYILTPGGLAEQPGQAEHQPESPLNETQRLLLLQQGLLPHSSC

ULK2 (human) = ULK2 (human) (UniProt Q8IYT8)

ABL2 (human), sequence (P42684 whole entry, looked up): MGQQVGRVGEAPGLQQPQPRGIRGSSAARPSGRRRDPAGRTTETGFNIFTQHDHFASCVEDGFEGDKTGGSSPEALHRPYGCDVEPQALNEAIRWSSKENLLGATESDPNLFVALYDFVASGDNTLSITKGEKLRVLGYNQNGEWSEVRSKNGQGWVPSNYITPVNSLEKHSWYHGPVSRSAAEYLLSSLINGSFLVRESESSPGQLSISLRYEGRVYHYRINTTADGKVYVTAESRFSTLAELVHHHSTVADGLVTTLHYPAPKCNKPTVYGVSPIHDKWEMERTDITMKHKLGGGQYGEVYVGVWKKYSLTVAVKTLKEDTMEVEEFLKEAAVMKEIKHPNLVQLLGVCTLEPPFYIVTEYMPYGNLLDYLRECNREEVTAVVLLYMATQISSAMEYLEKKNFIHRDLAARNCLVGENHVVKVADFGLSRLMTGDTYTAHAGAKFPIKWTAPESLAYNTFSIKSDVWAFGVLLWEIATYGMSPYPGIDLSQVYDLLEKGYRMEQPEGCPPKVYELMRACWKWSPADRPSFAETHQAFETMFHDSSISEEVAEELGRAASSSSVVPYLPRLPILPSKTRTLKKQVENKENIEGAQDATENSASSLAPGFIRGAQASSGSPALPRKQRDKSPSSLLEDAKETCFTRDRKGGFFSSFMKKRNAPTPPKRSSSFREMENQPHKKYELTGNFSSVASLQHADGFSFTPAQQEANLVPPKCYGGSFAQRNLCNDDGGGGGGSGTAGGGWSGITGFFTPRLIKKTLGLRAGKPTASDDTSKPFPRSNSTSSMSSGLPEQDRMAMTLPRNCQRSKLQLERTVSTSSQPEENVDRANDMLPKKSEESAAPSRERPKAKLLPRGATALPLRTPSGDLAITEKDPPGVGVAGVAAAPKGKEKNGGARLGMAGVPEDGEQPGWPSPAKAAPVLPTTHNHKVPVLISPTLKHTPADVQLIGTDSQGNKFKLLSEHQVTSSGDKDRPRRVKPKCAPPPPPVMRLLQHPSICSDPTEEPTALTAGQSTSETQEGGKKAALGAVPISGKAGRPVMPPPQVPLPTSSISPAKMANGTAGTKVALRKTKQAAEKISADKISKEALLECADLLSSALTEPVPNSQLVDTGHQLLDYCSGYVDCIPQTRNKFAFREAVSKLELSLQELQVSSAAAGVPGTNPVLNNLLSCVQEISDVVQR
ACVRL1 (human), sequence (P37023 whole entry, looked up): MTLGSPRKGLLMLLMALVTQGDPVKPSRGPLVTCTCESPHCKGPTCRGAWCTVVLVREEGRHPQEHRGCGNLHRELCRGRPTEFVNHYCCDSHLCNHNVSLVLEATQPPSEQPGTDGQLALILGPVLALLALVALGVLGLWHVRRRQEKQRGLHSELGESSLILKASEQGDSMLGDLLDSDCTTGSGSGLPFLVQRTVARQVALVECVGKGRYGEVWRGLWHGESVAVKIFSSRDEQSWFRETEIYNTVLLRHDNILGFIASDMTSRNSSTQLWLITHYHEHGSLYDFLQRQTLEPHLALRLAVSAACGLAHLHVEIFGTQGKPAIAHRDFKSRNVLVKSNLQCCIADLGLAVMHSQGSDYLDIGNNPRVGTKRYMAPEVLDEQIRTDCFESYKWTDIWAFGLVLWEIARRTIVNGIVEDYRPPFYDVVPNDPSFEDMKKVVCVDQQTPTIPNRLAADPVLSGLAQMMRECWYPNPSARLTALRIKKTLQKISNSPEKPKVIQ
CAMK4 (human), sequence (Q16566 whole entry, looked up): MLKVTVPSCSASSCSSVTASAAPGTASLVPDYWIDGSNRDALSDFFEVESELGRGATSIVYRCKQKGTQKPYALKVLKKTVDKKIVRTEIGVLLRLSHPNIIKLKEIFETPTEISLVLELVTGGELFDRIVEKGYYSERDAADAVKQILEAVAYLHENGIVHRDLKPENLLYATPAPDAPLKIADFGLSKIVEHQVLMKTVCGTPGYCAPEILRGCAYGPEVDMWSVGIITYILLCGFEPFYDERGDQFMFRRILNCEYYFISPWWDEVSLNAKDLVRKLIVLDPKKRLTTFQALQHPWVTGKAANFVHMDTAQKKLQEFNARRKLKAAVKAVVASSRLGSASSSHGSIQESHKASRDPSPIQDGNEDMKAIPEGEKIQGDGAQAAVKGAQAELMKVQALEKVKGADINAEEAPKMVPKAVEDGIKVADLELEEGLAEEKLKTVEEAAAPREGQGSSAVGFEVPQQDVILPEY

## c1ccc2c(-c3ccncc3)c[nH]c2c1
ABL2 (human)
  residual activity: 91.9%
ACVRL1 (human)
  residual activity: 100%
AKT3 (human)
  residual activity: 101%
BLK (human)
  residual activity: 99.6%
CAMK1G (human)
  residual activity: 99%
CAMK4 (human)
  residual activity: 101%
CAMKK1 (human)
  residual activity: 122%
CDC42BPB (human)
  residual activity: 104%
CDK1 CCNB1 (human)
  residual activity: 96%
CDK6 CCND3 (human)
  residual activity: 101%
CLK2 (human)
  residual activity: 101%
FER (human)
  residual activity: 91.6%
FGFR2 (human)
  residual activity: 105%
FRK (human)
  residual activity: 106%
GRK4 (human)
  residual activity: 94.9%
GRK7 (human)
  residual activity: 98.4%
HIPK2 (human)
  residual activity: 94.1%
HIPK4 (human)
  residual activity: 93.8%
IKBKB (human)
  residual activity: 102%
LCK (human)
  residual activity: 102%
LRRK2 (human)
  residual activity: 92.8%
MAP2K1 (human)
  residual activity: 96.5%
MAP3K14 (human)
  residual activity: 112%
MAP3K9 (human)
  residual activity: 83.3%
MAPKAPK5 (human)
  residual activity: 96.1%
MST4 (human)
  residual activity: 104%
NEK2 (human)
  residual activity: 106%
NEK7 (human)
  residual activity: 104%
PAK1 (human)
  residual activity: 99.1%
PDGFRB (human)
  residual activity: 105%
PRKD1 (human)
  residual activity: 95.5%
RPS6KB1 (human)
  residual activity: 79.9%
RPS6KB2 (human)
  residual activity: 97.8%
SRPK3 (human)
  residual activity: 96%
STK11 (human)
  residual activity: 90.7%
STK16 (human)
  residual activity: 110%
STK3 (human)
  residual activity: 112%
TAOK2 (human)
  residual activity: 92.1%
TAOK3 (human)
  residual activity: 103%
TEK (human)
  residual activity: 101%
TYRO3 (human)
  residual activity: 98.1%
ULK2 (human)
  residual activity: 106%
